Source: PubChem BioAssay AID298 (DTP/NCI, 2004)
Values joined by “and” are separate entries in the source; they are usually repeats but may differ in a detail not shown here. Equal values may be shown once. Inconclusive results are not listed.

Test system: MX-1 breast xenograft, intrarenal, nude mice, tumor weight
Test: NCI In Vivo Anticancer Drug Screen. Data for tumor model Human Mammary Carcinoma MX-1 Xenograft (intrarenal inoculation) in NU/NU BALB/C (nude) mice
Details: endpoint: mean tumor weight change, higher = larger tumour
Method in brief: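 Compounds were given to mice carrying transplanted tumors, and tumor size or survival was measured. Each value is the treated-group measurement (T) divided by the vehicle-treated control-group measurement (C).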

[1] = dose: 75.0 mg/kg/injection, schedule: Q04DX003 (ip), vehicle: saline with Tween-80
[2] = dose: 150.0 mg/kg/injection, schedule: Q04DX003 (ip), vehicle: saline with Tween-80
[3] = dose: 300.0 mg/kg/injection, schedule: Q04DX003 (ip), vehicle: saline with Tween-80
[4] = dose: 600.0 mg/kg/injection, schedule: Q04DX003 (ip), vehicle: saline with Tween-80
[5] = dose: 150.0 mg/kg/injection, schedule: Q04DX003 (ip), vehicle: other
[6] = dose: 300.0 mg/kg/injection, schedule: Q04DX003 (ip), vehicle: other
[7] = dose: 100.0 mg/kg/injection, schedule: Q04DX003 (ip), vehicle: saline with Tween-80
[8] = dose: 200.0 mg/kg/injection, schedule: Q04DX003 (ip), vehicle: saline with Tween-80

## C[n+]1c(-c2ccc(/C=N/NC(=O)c3ccc(C(=O)N/N=C/c4ccc(-c5cn6ccccc6[n+]5C)cc4)cc3)cc2)cn2ccccc21
[1]
  T/C: 92 % of control
[2]
  T/C: 56 % of control
[3]
  T/C: 65 % of control
[4]
  T/C: 69 % of control

## NC(=S)N/N=C/c1cc(=O)c2cc(Cl)ccc2o1
[5]
  T/C: 117 % of control
[6]
  T/C: 103 % of control
dose: 600.0 mg/kg/injection, schedule: Q04DX003 (ip), vehicle: other
  T/C: 117 % of control
dose: 1200.0 mg/kg/injection, schedule: Q04DX003 (ip), vehicle: other
  T/C: 106 % of control

## CCOC(=O)C1=C(C)O/C(=C/c2cccc(Cl)c2)C1=O
[2]
  T/C: 62 % of control

## O=C(NNC(=O)c1cccc(C(=O)NNC(=O)c2ccc(Cl)c(Cl)c2)n1)c1ccc(Cl)c(Cl)c1
dose: 50.0 mg/kg/injection, schedule: Q04DX003 (ip), vehicle: saline with Tween-80
  T/C: 106 % of control
[7]
  T/C: 78 % of control
[2]
  T/C: 73 % of control
[8]
  T/C: 98 % of control
[3]
  T/C: 64 % of control
dose: 400.0 mg/kg/injection, schedule: Q04DX003 (ip), vehicle: saline with Tween-80
  T/C: 102 % of control
[4]
  T/C: 65 % of control

## COc1c2c(c(O)c3c4c(c(C)cc13)C1OC3(C(OC)OC5CC(C)(O)C(OC6CC(C)(O)C(O)C(C)O6)C(C)O5)OC1C(OC)(O4)C31CO1)C(=O)C(O)CC2OC1CC(C)(O)C(OC(C)=O)C(C)O1 (stereo not given)
dose: 0.06 mg/kg/injection, schedule: Q04DX003 (ip), vehicle: saline
  T/C: 61 % of control
dose: 0.5 mg/kg/injection, schedule: Q04DX003 (ip), vehicle: saline
  T/C: 45 % of control

## O=NN(CCCl)C(=O)NCCO
dose: 3.13 mg/kg/injection, schedule: Q04DX003 (sc), vehicle: water
  T/C: 82 % of control
dose: 6.25 mg/kg/injection, schedule: Q04DX003 (sc), vehicle: water
  T/C: 38 % of control
dose: 12.5 mg/kg/injection, schedule: Q04DX003 (sc), vehicle: water
  T/C: 7 % of control

## [Cl][Sn]([c]1ccccc1)[c]1ccccc1
dose: 300.0 mg/kg/injection, schedule: Q04DX003 (sc), vehicle: saline
  T/C: 104 % of control
dose: 600.0 mg/kg/injection, schedule: Q04DX003 (sc), vehicle: saline
  T/C: 86 % of control
dose: 1200.0 mg/kg/injection, schedule: Q04DX003 (sc), vehicle: saline
  T/C: 55 % of control
dose: 2400.0 mg/kg/injection, schedule: Q04DX003 (sc), vehicle: saline
  T/C: 66 % of control

## N/C(=N/N=C/c1cc(Br)cc(Br)c1O)NO
dose: 50.0 mg/kg/injection, schedule: Q04DX003 (ip), vehicle: suspension in saline
  T/C: 107 % of control
dose: 200.0 mg/kg/injection, schedule: Q04DX003 (ip), vehicle: suspension in saline
  T/C: 27 % of control

## CO[C@@]12[C@H](COC(N)=O)C3=C(C(=O)C(C)=C(N)C3=O)N1C[C@@H]1N[C@@H]12
dose: 1.5 mg/kg/injection, schedule: Q04DX003 (sc), vehicle: saline
  T/C: 9 % of control and 14 % of control
dose: 6.0 mg/kg/injection, schedule: Q04DX003 (ip), vehicle: suspension in saline
  T/C: -100 % of control
dose: 8.0 mg/kg/injection, schedule: Q04DX003 (ip), vehicle: suspension in saline
  T/C: -100 % of control

## COc1cc([C@@H]2c3cc4c(cc3[C@@H](OC3OC5COC(C)OC5C(O)C3O)[C@H]3COC(=O)[C@H]23)OCO4)cc(OC)c1O (stereo not given in full)
dose: 2.0 mg/kg/injection, schedule: Q01DX010 (ip), vehicle: saline
  T/C: 58 % of control and 62 % of control
dose: 4.0 mg/kg/injection, schedule: Q01DX010 (ip), vehicle: saline
  T/C: 23 % of control and 30 % of control
dose: 8.0 mg/kg/injection, schedule: Q01DX010 (ip), vehicle: saline
  T/C: 5 % of control and 20 % of control
dose: 16.0 mg/kg/injection, schedule: Q01DX010 (ip), vehicle: saline
  T/C: 4 % of control and 6 % of control
dose: 64.0 mg/kg/injection, schedule: Q04DX003 (ip), vehicle: saline
  T/C: 76 % of control

## Cc1noc2nc(-c3ccccc3)cc(N3CCN(C)CC3)c12
dose: 75.0 mg/kg/injection, schedule: Q04DX003 (ip), vehicle: other
  T/C: 83 % of control
[5]
  T/C: 120 % of control
[6]
  T/C: 92 % of control

## COc1cc2oc3c(C)c(=O)cc4oc(-c5ccccc5)cc(c2c2c1CCC(c1ccccc1)O2)c43 (stereo not given)
dose: 7.0 mg/kg/injection, schedule: Q04DX003 (ip), vehicle: Klucel (hydroxypropylcellulose) (HPC)
  T/C: 88 % of control
dose: 14.0 mg/kg/injection, schedule: Q04DX003 (ip), vehicle: Klucel (hydroxypropylcellulose) (HPC)
  T/C: 82 % of control
dose: 37.5 mg/kg/injection, schedule: Q04DX003 (ip), vehicle: saline with Tween-80
  T/C: 111 % of control
dose: 56.0 mg/kg/injection, schedule: Q04DX003 (ip), vehicle: Klucel (hydroxypropylcellulose) (HPC)
  T/C: 107 % of control
[1]
  T/C: 77 % of control
[2]
  T/C: 117 % of control
[3]
  T/C: 52 % of control

## Cn1nnc2c(C(N)=O)ncn2c1=O
dose: 75.0 mg/kg/injection, schedule: Q04DX003 (ip), vehicle: suspension in saline
  T/C: 68 % of control
dose: 150.0 mg/kg/injection, schedule: Q04DX003 (ip), vehicle: saline
  T/C: 24 % of control
dose: 150.0 mg/kg/injection, schedule: Q04DX003 (ip), vehicle: suspension in saline
  T/C: 15 % of control
dose: 300.0 mg/kg/injection, schedule: Q04DX003 (ip), vehicle: saline
  T/C: -68 % of control
dose: 300.0 mg/kg/injection, schedule: Q04DX003 (ip), vehicle: suspension in saline
  T/C: -100 % of control

## COc1cc(C2c3cc4c(cc3[C@@H](OC3OC5CO[C@@H](C)OC5C(O)C3O)[C@H]3COC(=O)C23)OCO4)cc(OC)c1OC (stereo not given in full)
dose: 25.0 mg/kg/injection, schedule: Q04DX003 (ip), vehicle: saline
  T/C: 88 % of control
dose: 50.0 mg/kg/injection, schedule: Q04DX003 (ip), vehicle: saline
  T/C: 84 % of control
dose: 100.0 mg/kg/injection, schedule: Q04DX003 (ip), vehicle: saline
  T/C: 55 % of control
dose: 200.0 mg/kg/injection, schedule: Q04DX003 (ip), vehicle: saline
  T/C: 61 % of control
dose: 400.0 mg/kg/injection, schedule: Q04DX003 (ip), vehicle: saline
  T/C: 32 % of control

## c1ccc(-c2cc3cc4ccccc4cn3c2)cc1
[2]
  T/C: 61 % of control
[3]
  T/C: 108 % of control
[4]
  T/C: 81 % of control
dose: 1200.0 mg/kg/injection, schedule: Q04DX003 (ip), vehicle: saline with Tween-80
  T/C: 101 % of control

## Cc1cnc(/C=N\NC(N)=S)c2cccc(N)c12
dose: 125.0 mg/kg/injection, schedule: Q04DX003 (ip), vehicle: saline with Tween-80
  T/C: 31 % of control

## O=C(NO)c1ccccc1
dose: 100.0 mg/kg/injection, schedule: Q01DX010 (sc), vehicle: Klucel (hydroxypropylcellulose) (HPC)
  T/C: 89 % of control
dose: 200.0 mg/kg/injection, schedule: Q01DX010 (sc), vehicle: Klucel (hydroxypropylcellulose) (HPC)
  T/C: 61 % of control
dose: 400.0 mg/kg/injection, schedule: Q01DX010 (sc), vehicle: Klucel (hydroxypropylcellulose) (HPC)
  T/C: 21 % of control

## COC(=Nc1ccccc1)SSC(C)C
dose: 300.0 mg/kg/injection, schedule: Q04DX003 (sc), vehicle: saline with Tween-80
  T/C: 90 % of control
dose: 600.0 mg/kg/injection, schedule: Q04DX003 (sc), vehicle: saline with Tween-80
  T/C: 99 % of control

## NC(=O)C1C=CN(Cc2ccccc2)C=C1
[7]
  T/C: 62 % of control
[8]
  T/C: 64 % of control

## Cc1ccc(S(=O)(=O)NC(=O)OC23COCN2COC3)cc1
dose: 200.0 mg/kg/injection, schedule: Q04DX003 (sc), vehicle: saline with Tween-80
  T/C: 123 % of control
dose: 800.0 mg/kg/injection, schedule: Q04DX003 (sc), vehicle: saline with Tween-80
  T/C: 102 % of control
dose: 1600.0 mg/kg/injection, schedule: Q04DX003 (sc), vehicle: saline with Tween-80
  T/C: 107 % of control
